Data: the NIST ThermoML archive (doi:10.1016/j.jct.2012.12.007)

Assay: xn = mol fraction of the nth substance listed
Conditions: 101.3 kPa, Liquid; for speed of sound: Sing-around technique in a fixed-path interferometer; for mass density: Vibrating tube method

CCOCCOCCOCC [diethylene glycol diethyl ether] + CCCCCCCCCCO
Conditions	mass density [kg/m3]	speed of sound [m/s]
293.15 K, x2 = 0.0632	901.86	1267.1
293.15 K, x2 = 0.1084	897.94	1272.6
293.15 K, x2 = 0.2052	889.79	1284.5
293.15 K, x2 = 0.294	882.49	1295.5
293.15 K, x2 = 0.393	874.57	1308.1
293.15 K, x2 = 0.4943	866.66	1321.4
293.15 K, x2 = 0.543	862.92	1327.9
293.15 K, x2 = 0.5932	859.11	1334.7
293.15 K, x2 = 0.6872	852.12	1348.1
293.15 K, x2 = 0.7863	844.92	1363
293.15 K, x2 = 0.8872	837.76	1378.8
293.15 K, x2 = 0.9441	833.82	1388.1
298.15 K, x2 = 0.0605	897.98	1247.8
298.15 K, x2 = 0.111	893.68	1254.1
298.15 K, x2 = 0.1588	889.69	1260.1
298.15 K, x2 = 0.2062	885.79	1266.1
298.15 K, x2 = 0.302	878.08	1278.3
298.15 K, x2 = 0.3947	870.77	1290.4
298.15 K, x2 = 0.504	862.39	1305
298.15 K, x2 = 0.592	855.8	1317.3
298.15 K, x2 = 0.6553	851.16	1326.4
298.15 K, x2 = 0.7443	844.72	1339.5
298.15 K, x2 = 0.7923	841.32	1347
298.15 K, x2 = 0.8362	838.23	1353.8
298.15 K, x2 = 0.8836	834.93	1361.4
298.15 K, x2 = 0.94	831.05	1370.4
303.15 K, x2 = 0.0605	893	1229.6
303.15 K, x2 = 0.1016	889.54	1234.8
303.15 K, x2 = 0.154	885.23	1241.6
303.15 K, x2 = 0.2064	880.99	1248.3
303.15 K, x2 = 0.2953	873.94	1260
303.15 K, x2 = 0.3846	867.02	1271.7
303.15 K, x2 = 0.5006	858.29	1287.6
303.15 K, x2 = 0.5369	855.6	1292.7
303.15 K, x2 = 0.6486	847.46	1308.7
303.15 K, x2 = 0.7409	840.9	1322.6
303.15 K, x2 = 0.7915	837.36	1330.4
303.15 K, x2 = 0.8318	834.56	1336.7
303.15 K, x2 = 0.8856	830.89	1345.4
303.15 K, x2 = 0.9364	827.44	1353.5

CCOCCOCCOCC [diethylene glycol diethyl ether] + CCCCO
Conditions	mass density [kg/m3]	speed of sound [m/s]
293.15 K, x2 = 0.1284	901.3	1262.2
293.15 K, x2 = 0.2205	896.11	1263.3
293.15 K, x2 = 0.319	889.85	1264.1
293.15 K, x2 = 0.3623	886.86	1264.3
293.15 K, x2 = 0.4157	882.92	1264.5
293.15 K, x2 = 0.4529	879.96	1264.4
293.15 K, x2 = 0.4963	876.35	1264.4
293.15 K, x2 = 0.5481	871.71	1264.3
293.15 K, x2 = 0.6523	861.3	1263.6
293.15 K, x2 = 0.7018	855.73	1263.3
293.15 K, x2 = 0.7934	844.15	1262.1
293.15 K, x2 = 0.8942	829.14	1260.2
293.15 K, x2 = 0.9397	821.36	1258.9
298.15 K, x2 = 0.1245	896.77	1242.5
298.15 K, x2 = 0.2149	891.76	1243.8
298.15 K, x2 = 0.3175	885.38	1244.9
298.15 K, x2 = 0.4078	879	1245.5
298.15 K, x2 = 0.4543	875.4	1245.6
298.15 K, x2 = 0.5047	871.25	1245.7
298.15 K, x2 = 0.5543	866.84	1245.7
298.15 K, x2 = 0.6137	861.13	1245.5
298.15 K, x2 = 0.6973	852.18	1245.3
298.15 K, x2 = 0.7951	840.07	1244.5
298.15 K, x2 = 0.8466	832.8	1243.9
298.15 K, x2 = 0.9449	816.86	1241.7
303.15 K, x2 = 0.0738	894.47	1223.5
303.15 K, x2 = 0.1419	890.96	1224.8
303.15 K, x2 = 0.218	886.73	1225.9
303.15 K, x2 = 0.302	881.57	1227
303.15 K, x2 = 0.3764	876.51	1227.7
303.15 K, x2 = 0.5002	866.9	1228.3
303.15 K, x2 = 0.5541	862.16	1228.4
303.15 K, x2 = 0.6056	857.29	1228.5
303.15 K, x2 = 0.6997	847.32	1228.4
303.15 K, x2 = 0.7961	835.44	1227.9
303.15 K, x2 = 0.8493	827.96	1227.4
303.15 K, x2 = 0.8896	821.8	1226.8
303.15 K, x2 = 0.9431	812.86	1225.8

CCOCCOCCOCC [diethylene glycol diethyl ether] + CO
Conditions	mass density [kg/m3]	speed of sound [m/s]
293.15 K, x2 = 0.1141	904.9	1259.4
293.15 K, x2 = 0.1553	904.05	1259.4
293.15 K, x2 = 0.1987	903.07	1259.2
293.15 K, x2 = 0.249	901.79	1258.6
293.15 K, x2 = 0.2972	900.38	1257.7
293.15 K, x2 = 0.3651	898.01	1255.9
293.15 K, x2 = 0.3841	897.27	1255.2
293.15 K, x2 = 0.4206	895.72	1253.7
293.15 K, x2 = 0.4696	893.32	1251.3
293.15 K, x2 = 0.5133	890.89	1248.6
293.15 K, x2 = 0.5624	887.61	1244.7
293.15 K, x2 = 0.6126	883.69	1240
293.15 K, x2 = 0.6545	879.81	1235.1
293.15 K, x2 = 0.698	875.07	1229
293.15 K, x2 = 0.7575	867.11	1218.6
293.15 K, x2 = 0.8037	859.25	1208.1
293.15 K, x2 = 0.8469	850.24	1196
293.15 K, x2 = 0.9023	835.03	1175.4
293.15 K, x2 = 0.9467	818.74	1153.6
298.15 K, x2 = 0.1296	900	1240
298.15 K, x2 = 0.1589	899.4	1239.9
298.15 K, x2 = 0.1917	898.67	1239.7
298.15 K, x2 = 0.2627	896.83	1239
298.15 K, x2 = 0.2904	896.02	1238.5
298.15 K, x2 = 0.3505	894.01	1237.1
298.15 K, x2 = 0.3925	892.41	1235.8
298.15 K, x2 = 0.4241	891.01	1234.4
298.15 K, x2 = 0.4639	889.09	1232.6
298.15 K, x2 = 0.5181	886.01	1229.3
298.15 K, x2 = 0.5637	882.97	1225.8
298.15 K, x2 = 0.6132	879.12	1221.2
298.15 K, x2 = 0.6207	878.44	1220.4
298.15 K, x2 = 0.6959	870.83	1210.9
298.15 K, x2 = 0.7434	864.68	1203
298.15 K, x2 = 0.8007	855.37	1190.8
298.15 K, x2 = 0.8481	845.46	1177.7
298.15 K, x2 = 0.9005	831.08	1158.6
298.15 K, x2 = 0.9476	813.97	1135.9
303.15 K, x2 = 0.1058	895.27	1221.5
303.15 K, x2 = 0.1571	894.27	1221.5
303.15 K, x2 = 0.1991	893.31	1221.4
303.15 K, x2 = 0.2309	892.58	1220.9
303.15 K, x2 = 0.2886	890.89	1220.4
303.15 K, x2 = 0.3249	889.71	1219.5
303.15 K, x2 = 0.3748	887.88	1218.2
303.15 K, x2 = 0.4216	885.91	1216.5
303.15 K, x2 = 0.473	883.4	1214.1
303.15 K, x2 = 0.5164	880.9	1211.5
303.15 K, x2 = 0.5681	877.47	1207.7
303.15 K, x2 = 0.6092	874.33	1204.1
303.15 K, x2 = 0.6548	870.07	1199
303.15 K, x2 = 0.6984	865.35	1193.3
303.15 K, x2 = 0.7448	859.28	1185.6
303.15 K, x2 = 0.8012	849.99	1173.9
303.15 K, x2 = 0.8484	840.19	1161.1
303.15 K, x2 = 0.9007	825.94	1142.6
303.15 K, x2 = 0.9489	808.25	1119.6
